Patent publication US9216983B2, “Dihydroorotate dehydrogenase inhibitors with selective anti-malarial activity” (BOARD OF REGENTS, UNIVERSITY OF TEXAS SYSTEM, priority 2007, dated 2015)
Values joined by “and” are separate entries in the source; they are usually repeats but may differ in a detail not shown here. Equal values may be shown once. Read-outs that look alike come from different tables or passages of the source.

Legend:
P. falciparum = test: Inhibition of cell proliferation, 3H-hypoxanthine uptake in P. falciparum-infected erythrocytes; format: cell-based
Text: [formula] II. In Vitro Evaluation of Compound Efficacy on the Human Malaria Parasite, P. falciparum.

PfDHODH = biological target: T1, PfDHODH (Plasmodium falciparum, UniProt Q08210); test: biochemical
T1 sequence (Q08210 24-569): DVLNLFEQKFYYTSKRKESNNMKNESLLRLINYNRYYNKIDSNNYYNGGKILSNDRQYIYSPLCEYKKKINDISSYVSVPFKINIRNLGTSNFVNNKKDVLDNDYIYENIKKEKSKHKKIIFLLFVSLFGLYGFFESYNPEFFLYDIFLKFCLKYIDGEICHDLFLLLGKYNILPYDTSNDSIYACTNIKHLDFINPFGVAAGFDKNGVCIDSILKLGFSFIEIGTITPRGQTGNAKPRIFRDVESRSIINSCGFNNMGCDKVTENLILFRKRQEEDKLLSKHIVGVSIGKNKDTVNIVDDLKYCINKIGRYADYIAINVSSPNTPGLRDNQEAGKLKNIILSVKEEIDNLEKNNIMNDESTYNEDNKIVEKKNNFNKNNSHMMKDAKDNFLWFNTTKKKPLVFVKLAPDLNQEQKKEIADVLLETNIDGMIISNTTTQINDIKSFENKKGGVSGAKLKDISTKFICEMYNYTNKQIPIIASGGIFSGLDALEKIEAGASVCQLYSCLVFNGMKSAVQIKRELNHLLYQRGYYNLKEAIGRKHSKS
Procedure: (§1) Briefly, the assay solution contained 100 mM HEPES, pH 8.0, 150 mM NaCl, 10% glycerol, 0.1% Triton X-100, 20 micro molar COQD (coenzyme QD), 200 micro molar L-dihydroorotate, and 120 micro molar DCIP. Reactions are initiated by addition of enzyme to a final concentration in the range of about […] to about 50 nM while maintaining the temperature of a circulating water bath at 25° C.
(§2) Assay solutions were prepared as discussed above, except that DCIP is not present and the solution is depleted of oxygen by the inclusion of an oxidase/reductase system, such as, 0.1 mg/ml of glucose oxidase, 0.02 mg/ml catalase and 50 mM glucose. The data obtained is fitted to equation 1, to determine the IC50 values of the representative compounds.

hDHODH = hDHODH (Homo sapiens, UniProt Q02127); test: DHODH enzyme inhibition assay, hDHODH; format: biochemical
Procedure: as §1, §2

PbDHODH = PbDHODH (Plasmodium berghei, UniProt A0A509AEH5); test: DHODH enzyme inhibition assay, PbDHODH; format: biochemical, P. berghei
Procedure: as §1, §2

[1] = Plasmodium falciparum, Erythrocyte, Table 1, read-out: EC50 P. falciparum
[2] = Table 1, read-out: IC50 PfDHODH
[3] = Table 3, average of the determinations, read-out: PbDHODH IC50 Ave (converted)
[4] = Plasmodium falciparum, 3D7, Erythrocyte, Table 3, 3D7, single determinations, read-out: P. falciparum 3D7 EC50 (converted)
[5] = Table 4, IC50 class, read-out: PbDHODH
[6] = Table 4, IC50 class, read-out: PfDHODH
[7] = Table 4, IC50 class, read-out: hDHODH
[8] = Plasmodium falciparum, 3D7, Erythrocyte, Table 5, 3D7 cells, read-out: EC50 P. falciparum 3D7 cells
[9] = Table 5, read-out: PfDHODH IC50

Chain of PbDHODH (A0A509AEH5 entry or part of it): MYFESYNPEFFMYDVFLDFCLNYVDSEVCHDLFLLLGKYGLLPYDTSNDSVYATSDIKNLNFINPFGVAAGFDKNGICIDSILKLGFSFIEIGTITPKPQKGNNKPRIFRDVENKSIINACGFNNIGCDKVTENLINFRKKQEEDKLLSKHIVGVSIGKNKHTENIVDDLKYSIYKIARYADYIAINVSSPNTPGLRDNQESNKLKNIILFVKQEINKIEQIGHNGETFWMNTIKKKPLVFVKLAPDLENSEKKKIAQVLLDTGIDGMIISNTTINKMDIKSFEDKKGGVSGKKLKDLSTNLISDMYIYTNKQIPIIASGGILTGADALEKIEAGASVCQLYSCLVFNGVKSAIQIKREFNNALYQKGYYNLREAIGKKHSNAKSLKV
Chain of hDHODH (Q02127 whole entry): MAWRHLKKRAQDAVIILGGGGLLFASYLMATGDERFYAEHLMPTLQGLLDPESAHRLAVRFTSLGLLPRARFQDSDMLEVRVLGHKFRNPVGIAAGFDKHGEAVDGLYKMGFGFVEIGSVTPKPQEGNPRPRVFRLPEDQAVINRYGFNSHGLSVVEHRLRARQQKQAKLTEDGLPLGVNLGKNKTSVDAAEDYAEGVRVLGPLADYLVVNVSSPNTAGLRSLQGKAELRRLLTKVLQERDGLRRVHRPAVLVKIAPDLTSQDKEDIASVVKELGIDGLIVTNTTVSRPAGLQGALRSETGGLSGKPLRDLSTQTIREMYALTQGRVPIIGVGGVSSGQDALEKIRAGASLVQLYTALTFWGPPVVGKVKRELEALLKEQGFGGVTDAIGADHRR

SMILES | IC50 (PbDHODH; [5]) | IC50 (PfDHODH; [6]) | IC50 (hDHODH; [7]) | also measured
Cc1cc(Nc2ccc(F)c(C)c2)n2ncnc2n1 | – | – | – | melting point: 231 °C
Cc1cc(Nc2ccc3ccccc3c2)n2nc(C)nc2n1 | – | – | – | EC50 (P. falciparum; [1]): < 0.15 µM; IC50 (PfDHODH; [2]): 0.12 ± 0.02 µM; IC50 (hDHODH; Table 1, read-out: IC50 hDHODH): > 200 µM
Cc1cc(Nc2ccc3cc4ccccc4cc3c2)n2nc(C)nc2n1 | – | – | – | EC50 (P. falciparum; [1]): 0.23 ± 0.0014 µM; IC50 (PfDHODH; [2]): 0.1 µM; IC50 (hDHODH; Table 1, read-out: IC50 hDHODH): > 200 µM
Cc1cc(Nc2ccc3ccccc3c2)n2nccc2n1 | – | – | – | IC50 (PbDHODH; [3]): 3.3 µM; EC50 (P. falciparum; Plasmodium falciparum, 3D7, Erythrocyte, Table 3, 3D7, average of the determinations, read-out: P. falciparum 3D7 EC50 Ave): 1 µM; EC50 (P. falciparum; [4]): 0.99 ± 0.006 µM; EC50 (P. falciparum; Table 3, 3D7, single determinations, read-out: P. falciparum 3D7 EC50 (converted)): 1.1 µM; IC50 (PfDHODH; Table 3, single determinations, read-out: PfDHODH IC50): 0.4 ± 0.09 µM
Cc1cc(Nc2ccc3ccccc3c2)n2ccnc2n1 | – | – | – | IC50 (PbDHODH; [3]): 2.8 µM; EC50 (P. falciparum; [4]): 0.2 ± 0.001 µM; IC50 (PfDHODH; PfDHODH IC50, Table 3, single determinations): 0.16 µM and 0.14 µM; IC50 (PfDHODH; Table 3, average of the determinations, read-out: PfDHODH IC50 Ave (converted)): 0.15 µM
Cc1cc(Nc2cccc(F)c2)n2ncnc2n1 | > 10 µM | 2 to 10 µM | > 10 µM | –
Cc1cc(Nc2cccc(C(F)(F)F)c2)n2ncnc2n1 | > 10 µM | > 10 µM | > 10 µM | –
Cc1cc(NCCCc2ccccc2)n2ncnc2n1 | > 10 µM | > 10 µM | > 10 µM | –
Cc1cc(Nc2ccc(C#N)c(C(F)(F)F)c2)n2ncnc2n1 | – | – | 2 to 10 µM | IC50 (PbDHODH; PbDHODH, Table 4, IC50 class): > 10 µM; IC50 (PfDHODH; PfDHODH, Table 4, IC50 class): 2 to 10 µM
Cc1cc(Nc2ccc(C)c(F)c2)n2ncnc2n1 | 2 to 10 µM | < 2 µM | > 10 µM | –
Cc1cc(Nc2ccc(Cc3ccccc3)cc2)n2ncnc2n1 | > 10 µM | < 2 µM | 2 to 10 µM | –
Cc1ccc(Nc2cc(C)nc3ncnn23)c(F)c1 | > 10 µM | > 10 µM | > 10 µM | –
Cc1cc(Nc2ccc3[nH]c(C(F)(F)F)nc3c2)n2ncnc2n1 | > 10 µM | > 10 µM | > 10 µM | –
Cc1cc(Nc2ccc(OC(F)(F)F)cc2)n2ncnc2n1 | > 10 µM | < 2 µM | > 10 µM | –
Cc1cc(Nc2ccc(Cl)cc2)n2ncnc2n1 | 2 to 10 µM | < 2 µM | > 10 µM | –
COc1ccc(Nc2cc(C)nc3ncnn23)cc1 | < 2 µM | < 2 µM | > 10 µM | –
CCc1ccc(Nc2cc(C)nc3ncnn23)cc1 | – | < 2 µM | > 10 µM | IC50 (PbDHODH; PbDHODH, Table 4, IC50 class): 2 to 10 µM
CCCc1ccc(Nc2cc(C)nc3ncnn23)cc1 | – | < 2 µM | > 10 µM | IC50 (PbDHODH; PbDHODH, Table 4, IC50 class): 2 to 10 µM
Cc1cc(Nc2ccc(C(C)C)cc2)n2ncnc2n1 | – | < 2 µM | > 10 µM | IC50 (PbDHODH; PbDHODH, Table 4, IC50 class): < 2 µM
CCCCc1ccc(Nc2cc(C)nc3ncnn23)cc1 | – | < 2 µM | > 10 µM | IC50 (PbDHODH; PbDHODH, Table 4, IC50 class): 2 to 10 µM
Cc1cc(Nc2ccc(F)c(F)c2F)n2ncnc2n1 | > 10 µM | > 10 µM | > 10 µM | –
Cc1cc(Nc2cccc(F)c2F)n2ncnc2n1 | – | > 10 µM | – | IC50 (PbDHODH; PbDHODH, Table 4, IC50 class): > 10 µM
Cc1cc(Nc2cc(F)c(F)cc2F)n2ncnc2n1 | – | > 10 µM | – | IC50 (PbDHODH; PbDHODH, Table 4, IC50 class): > 10 µM
Cc1cc(Nc2c(F)cc(F)cc2F)n2ncnc2n1 | > 10 µM | > 10 µM | > 10 µM | –

SMILES | IC50 (PbDHODH; [5]) | IC50 (PfDHODH; [6]) | IC50 (hDHODH; [7]) | also measured
Cc1cc(Nc2cc(F)cc(F)c2)n2ncnc2n1 | > 10 µM | 2 to 10 µM | > 10 µM | –
Cc1cc(Nc2ccc(F)c(F)c2)n2ncnc2n1 | – | 2 to 10 µM | – | IC50 (PbDHODH; PbDHODH, Table 4, IC50 class): 2 to 10 µM
CCCCCc1ccc(Nc2cc(C)nc3ncnn23)cc1 | – | < 2 µM | – | IC50 (PbDHODH; PbDHODH, Table 4, IC50 class): > 10 µM
CCCCCCc1ccc(Nc2cc(C)nc3ncnn23)cc1 | – | 2 to 10 µM | – | IC50 (PbDHODH; PbDHODH, Table 4, IC50 class): > 10 µM
CCCCCCCc1ccc(Nc2cc(C)nc3ncnn23)cc1 | – | > 10 µM | – | IC50 (PbDHODH; PbDHODH, Table 4, IC50 class): > 10 µM
CCCCCCCCc1ccc(Nc2cc(C)nc3ncnn23)cc1 | – | > 10 µM | – | IC50 (PbDHODH; PbDHODH, Table 4, IC50 class): > 10 µM
Cc1cc(Nc2ccc(C)c(C(F)(F)F)c2)n2ncnc2n1 | 2 to 10 µM | < 2 µM | > 10 µM | –
Cc1cc(Nc2ccc(C)c(C)c2)n2ncnc2n1 | 2 to 10 µM | < 2 µM | > 10 µM | –
Cc1cc(Nc2ccc(C(F)(F)F)c(F)c2)n2ncnc2n1 | < 2 µM | < 2 µM | > 10 µM | –
Cc1cc(Nc2cc(C(F)(F)F)cc(C(F)(F)F)c2)n2ncnc2n1 | > 10 µM | > 10 µM | > 10 µM | –
Cc1cc(Nc2ccc3c(c2)OCO3)n2ncnc2n1 | – | < 2 µM | > 10 µM | IC50 (PbDHODH; PbDHODH, Table 4, IC50 class): > 10 µM
Cc1cc(Nc2ccc(Br)c(C(F)(F)F)c2)n2ncnc2n1 | < 2 µM | < 2 µM | > 10 µM | –
Cc1cc(Nc2ccc(Br)c(C)c2)n2nc(C)nc2n1 | – | – | – | EC50 (P. falciparum; [8]): 0.08 to 0.12 µM; IC50 (PfDHODH; [9]): 0.0706 µM
Cc1nc2nc(C)c(C)c(Nc3ccc(C(F)(F)F)cc3)n2n1 [2,5,6-trimethyl-N-(4-(trifluoromethyl)phenyl)-[1,2,4]triazolo[1,5-a]pyrimidin-7-amine] | – | – | – | EC50 (P. falciparum; [8]): 3.6 ± 0.004 µM; IC50 (PfDHODH; [9]): 3 ± 0.46 µM
Cc1cc(Nc2ccc(C(F)(F)F)cc2)n2nc(C)nc2n1 [2,5-dimethyl-N-(4-(trifluoromethyl)phenyl)-[1,2,4]triazolo[1,5-a]pyrimidin-7-amine] | – | – | – | EC50 (P. falciparum; [8]): 0.93 ± 0.018 µM; IC50 (PfDHODH; [9]): 0.65 ± 0.31 µM
CC1=NC2=NC=NC2C(Nc2ccc3ccccc3c2)=N1 (centres unmarked) [2-methyl-N-(naphthalen-2-yl)-9H-purin-6-amine] | – | – | – | EC50 (P. falciparum; Plasmodium falciparum, Erythrocyte, read-out: EC50 P. falciparum): 1.6 µM; IC50 (PfDHODH; IC50 PfDHODH, Table 1): 0.44 ± 0.2 µM; IC50 (hDHODH; Table 1, read-out: IC50 hDHODH): > 200 µM
Cc1nc2ncnn2c(Nc2ccc(C(F)(F)F)cc2)c1C [5,6-dimethyl-N-(4-(trifluoromethyl)phenyl)-[1,2,4]triazolo[1,5-a]pyrimidin-7-amine] | – | – | – | EC50 (P. falciparum; [8]): 2.7 ± 0.009 µM; IC50 (PfDHODH; [9]): 1.2 ± 0.33 µM
Cc1nc2nc(C)c(Cl)c(Nc3ccc(C(F)(F)F)cc3)n2n1 [6-chloro-2,5-dimethyl-N-(4-(trifluoromethyl)phenyl)-[1,2,4]triazolo[1,5-a]pyrimidin-7-amine] | – | – | – | EC50 (P. falciparum; [8]): 7.1 ± 0.04 µM; IC50 (PfDHODH; [9]): 0.62 ± 0.08 µM
Cc1nc2ncnn2c(Nc2ccc(C(F)(F)F)cc2)c1Cl [6-chloro-5-methyl-N-(4-(trifluoromethyl)phenyl)-[1,2,4]triazolo[1,5-a]pyrimidin-7-amine] | – | – | – | EC50 (P. falciparum; [8]): 2.7 ± 0.03 µM; IC50 (PfDHODH; [9]): 0.34 ± 0.06 µM
Cc1cc(Nc2ccc(OC(F)F)cc2)n2ncnc2n1 [Compound 20, (4-Difluoromethoxy-phenyl)-(5-methyl-[1,2,4]triazolo[1,5-a]pyrimidin-7-yl)-amine] | – | – | – | melting point: 200 °C
Cc1cc(Nc2cccc(Cl)c2)n2ncnc2n1 [drawing 23] | – | – | – | melting point: 227 °C
Cc1cc(Nc2ccc(F)c(C)c2)n2ncnc2n1 [drawing 39] | > 10 µM | 2 to 10 µM | 2 to 10 µM | –
Cc1cc(Nc2ccc(OC(F)F)cc2)n2ncnc2n1 [drawing 44] | – | < 2 µM | – | IC50 (PbDHODH; PbDHODH, Table 4, IC50 class): > 10 µM
Cc1cc(Nc2ccc(C(F)(F)F)cc2)n2ncnc2n1 [drawing 93] | – | – | – | EC50 (P. falciparum; [8]): 0.33 ± 0.02 µM
